Test results from paper PMC6028453, “BrlR from Pseudomonas aeruginosa is a receptor for both cyclic di-GMP and pyocyanin” (Nature Communications, 2018).

Tests used:
[1] = target: T1, C2E mut2 DNA binding (Pseudomonas aeruginosa, UniProt Q9HUT5, R67A/R86A); assay: EMSA, C2E mut2 with PbrlR DNA; type: biochemical
T1 construct: His6-SUMO (N, cleaved yes); made in house; host or cells: E. coli BL21 DE3
Description: A 6-carboxy-fluorescein (FAM)-labeled 36-bp brlR promoter DNA (PbrlR) or 80-bp mexA/mexE promoter DNA (PmexA/PmexE) probes (~0.375 pmol), BrlR protein and varying amounts of inducers were incubated in binding buffer (10 mM Tris HCl [pH 7.4], 50 mM KCl, 1 mM DTT, […] and 5 ng/mL poly [dI-dC]) for 60 min at 25 °C. Finally, glycerol was added to a concentration of 6.5%. The samples were subjected to a 5% polyacrylamide gel electrophoresis and run in 0.5 × Tris-borate-EDTA buffer at 80 V for 1 h at room temperature. Imaging and data analyses were performed using a Typhoon Scanner (GE Healthcare) and Imagequant software. The probes used are listed in Supplementary Table 1.

[2] = system: brlR transcription; assay: qRT-PCR of brlR transcript; type: cell-based, P. aeruginosa PAO1; settings: elevated c-di-GMP by diguanylate cyclase PA4843 in PAO1
Description: PAO1 WT strains were grown under different conditions. For c-di-GMP effects, overexpression of PA4843 in PAO1 (PAO1/pHERD20T-PA4843) relative to WT cells (PAO1/ pHERD20T) was determined. When P. aeruginosa strains entered mid-log phase, arabinose was added to induce gene expression. To test pyocyanin’s effect, a P. aeruginosa PAO1 WT strain cells with high pyocyanin production was determined relative to a ΔphzA1-G1/phzA2-G2 strain not producing phenazine and a ΔphzMSH strain not producing pyocyanin.
Total RNA was extracted using a MiniBEST Universal RNA Extraction Kit (TaKaRa) and cDNA synthesis was performed using a PrimeScript RT reagent Kit (TaKaRa). Primers for RT-PCR listed in Supplementary Table 1 were designed using the program PrimerExpress (Applied Biosystems). The RT-PCR reactions were performed on a CFX96 Real-Time PCR Detection System (Bio-Rad) using SYBR Premix Ex Taq™ (TaKaRa). Expression of the target genes was normalized to the expression of 16 S RNA. The relative transcript abundance was calculated according to the 2^−ΔΔCt method. Five biological replicates were performed per sample. The data were analyzed with a one-tailed t-test (***P ≤ 0.001).

[3] = target: T2, BrlR mutant Y40A (Pseudomonas aeruginosa, UniProt Q9HUT5, Y40A); assay: FP binding assay, BrlR Y40A
T2 construct: His6-SUMO (N, cleaved yes); made in house; host or cells: E. coli BL21 DE3
T2 sequence (Q9HUT5 whole entry Y40A): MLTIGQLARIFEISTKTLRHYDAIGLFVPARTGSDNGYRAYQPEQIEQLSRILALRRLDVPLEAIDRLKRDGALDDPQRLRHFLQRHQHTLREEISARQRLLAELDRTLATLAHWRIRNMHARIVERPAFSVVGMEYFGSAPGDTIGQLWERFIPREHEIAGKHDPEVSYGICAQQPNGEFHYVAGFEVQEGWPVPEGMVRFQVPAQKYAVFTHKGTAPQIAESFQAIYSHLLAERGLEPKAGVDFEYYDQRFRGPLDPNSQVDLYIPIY
Description: F-c-di-GMP and F-c-di-AMP both contain a fluorophore at one of the 2′-ribose hydroxyls of c-di-GMP and c-di-AMP, respectively (Fig. 2f). To measure the binding of c-di-GMP and c-di-AMP to BrlR variants, 1 nM F-c-di-GMP or F-c-di-AMP was incubated with increasing amounts of indicated BrlR WT, BrlR mutation, or BrlR-C in reaction buffer (25 mM HEPES, 100 mM NaCl, pH 7.5) at 25 °C for 20 min. 1 nM fluorescein was incubated with BrlR WT in the same reaction buffer at 25 °C. FP measurements were conducted on a Synergy 4 Microplate Reader (BioTek) at 25 °C. All experiments were performed in triplicate. The curves were fitted to deduce binding affinities by GraphPad Prism 5.
BrlR–c-di-GMPs interactions in two separate c-di-GMP binding sites
In the first binding site, c-di-GMP is half accommodated by the antiparallel β-sheet and two residues (M1 and D35). In detail, the backbone amide protons of the first M1 residue form a hydrogen bond (H-bond) with the phosphate oxygen atom of c-di-GMP, and the side chain of R31 forms two H-bonds with the Gua1 base. The residue D35 also forms an H-bond with the Gua1 base. The aromatic ring of Y40 interacts with the Gua1 base through a hydrophobic π-π interaction. In addition, the hydroxyl group of the Y270 side chain from another subunit interacts with the phosphate 2 of c-di-GMP via an H-bond (Fig. 2d). […]

T1 sequence (Q9HUT5 whole entry R67A/R86A): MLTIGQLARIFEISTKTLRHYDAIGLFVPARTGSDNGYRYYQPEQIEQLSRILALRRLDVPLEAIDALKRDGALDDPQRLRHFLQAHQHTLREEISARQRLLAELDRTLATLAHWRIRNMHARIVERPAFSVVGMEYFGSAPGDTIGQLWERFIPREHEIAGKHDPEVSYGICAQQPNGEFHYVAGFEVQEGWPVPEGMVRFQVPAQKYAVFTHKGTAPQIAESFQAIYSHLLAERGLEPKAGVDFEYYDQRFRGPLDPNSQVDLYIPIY

`Nc1nc2c(ncn2[C@@H]2O[C@@H]3COP(=O)(O)O[C@H]4[C@@H](O)[C@H](n5cnc6c(=O)[nH]c(N)nc65)O[C@@H]4COP(=O)(O)O[C@H]3[C@H]2O)c(=O)[nH]1` [c-di-GMP, cyclic diguanylate monophosphate] was tested, and the “BrlR-DNA complex in the presence vs absence of c-di-GMP” value [1] was 1.9 fold, the “transcriptional level of brlR, pHERD20T-PA4843 strain vs pHERD20T-empty strain” value [2] was 4.5 ± 1.3 fold and the Kd [3] was 34.2 ± 2.6 µM.
